Laboratory results taken from article PMC3961306, “Comparison of the Cancer Gene Targeting and Biochemical Selectivities of All Targeted Kinase Inhibitors Approved for Clinical Use” (PLoS ONE, 2014).

Experiments:
Assay in all cases: Kinase profiling in a biochemical assay panel (mobility shift assays and ELISA), %-inhibition at 1 μM; selectivity entropy
[1] = biological target: T1, panel of more than 300 wild-type and mutant kinases (313 kinase panel) (Homo sapiens, UniProt Q9NRA0)
T1 sequence (Q9NRA0 1-654): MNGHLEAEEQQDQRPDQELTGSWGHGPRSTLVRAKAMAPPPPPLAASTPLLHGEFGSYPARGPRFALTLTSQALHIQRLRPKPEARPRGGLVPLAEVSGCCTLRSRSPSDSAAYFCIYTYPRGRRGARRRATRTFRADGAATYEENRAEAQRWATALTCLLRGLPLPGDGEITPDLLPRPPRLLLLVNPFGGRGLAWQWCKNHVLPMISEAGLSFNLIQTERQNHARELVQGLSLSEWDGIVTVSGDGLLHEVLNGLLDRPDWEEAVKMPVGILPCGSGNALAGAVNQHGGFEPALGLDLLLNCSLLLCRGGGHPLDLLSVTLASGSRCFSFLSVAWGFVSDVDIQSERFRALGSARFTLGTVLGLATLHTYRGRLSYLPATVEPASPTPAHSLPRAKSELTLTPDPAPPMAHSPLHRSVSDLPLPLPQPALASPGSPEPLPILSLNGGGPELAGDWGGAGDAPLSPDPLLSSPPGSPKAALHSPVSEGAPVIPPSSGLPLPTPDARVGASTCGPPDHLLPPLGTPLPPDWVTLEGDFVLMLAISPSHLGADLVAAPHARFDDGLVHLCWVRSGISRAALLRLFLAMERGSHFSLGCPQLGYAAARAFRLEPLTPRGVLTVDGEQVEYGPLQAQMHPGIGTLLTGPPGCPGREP

[2] = biological target: panel of more than 300 wild-type and mutant kinases (313 kinase panel) (Homo sapiens, UniProt Q00534)
[3] = biological target: T2, panel of more than 300 wild-type and mutant kinases (313 kinase panel) (Homo sapiens, UniProt Q13163)
T2 sequence (Q13163 1-448): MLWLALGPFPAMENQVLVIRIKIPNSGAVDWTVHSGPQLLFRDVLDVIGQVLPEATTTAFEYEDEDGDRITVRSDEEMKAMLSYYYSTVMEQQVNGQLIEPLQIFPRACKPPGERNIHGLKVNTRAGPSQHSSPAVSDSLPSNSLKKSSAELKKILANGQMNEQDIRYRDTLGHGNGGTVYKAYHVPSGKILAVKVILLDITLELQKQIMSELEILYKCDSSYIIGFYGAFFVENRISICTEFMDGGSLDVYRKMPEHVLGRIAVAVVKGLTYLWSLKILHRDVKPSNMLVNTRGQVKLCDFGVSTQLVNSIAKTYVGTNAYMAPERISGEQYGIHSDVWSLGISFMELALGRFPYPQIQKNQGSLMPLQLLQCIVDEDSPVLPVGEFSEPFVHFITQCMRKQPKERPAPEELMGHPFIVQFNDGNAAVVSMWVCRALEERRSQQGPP

[4] = biological target: panel of more than 300 wild-type and mutant kinases (313 kinase panel) (Homo sapiens, UniProt Q9H0K1)
[5] = biological target: panel of more than 300 wild-type and mutant kinases (313 kinase panel) (Homo sapiens, UniProt Q9UM73, F1174L)
[6] = biological target: panel of more than 300 wild-type and mutant kinases (313 kinase panel) (Homo sapiens, UniProt Q13153)
[7] = biological target: T3, panel of more than 300 wild-type and mutant kinases (313 kinase panel) (Homo sapiens, UniProt Q16566)
T3 sequence (Q16566 1-473): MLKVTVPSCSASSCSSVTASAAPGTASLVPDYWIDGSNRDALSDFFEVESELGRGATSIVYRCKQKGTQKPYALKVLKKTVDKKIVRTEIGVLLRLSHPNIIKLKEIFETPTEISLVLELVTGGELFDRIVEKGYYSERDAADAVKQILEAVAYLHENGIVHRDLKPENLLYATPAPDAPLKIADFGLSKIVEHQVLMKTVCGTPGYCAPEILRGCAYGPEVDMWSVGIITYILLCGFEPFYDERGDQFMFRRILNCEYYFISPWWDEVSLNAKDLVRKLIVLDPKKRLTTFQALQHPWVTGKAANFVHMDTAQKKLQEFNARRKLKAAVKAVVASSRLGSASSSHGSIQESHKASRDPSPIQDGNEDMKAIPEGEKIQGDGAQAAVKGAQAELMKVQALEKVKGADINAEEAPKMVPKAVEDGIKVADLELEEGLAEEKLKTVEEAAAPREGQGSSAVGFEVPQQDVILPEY

[8] = kinase CDK6/CycD3, 1 μM compound
[9] = kinase MAP2K5, compound at 1 μM
[10] = kinase ALK(F1174L), 1 μM compound

Compound	%-inhibition of SPHK2 ([1]; kinase SPHK2, 1 μM) [%]	%-inhibition, CDK6/CycD3 [2, 8] [%]	%-inhibition of MAP2K5 [3, 9] [%]	%-inhibition of QIK ([4]; kinase QIK, 1 μM) [%]	%-inhibition, ALK(F1174L) [5, 10] [%]	%-inhibition of PAK1 ([6]; kinase PAK1, 1 μM) [%]	%-inhibition, CaMK4 ([7]; kinase CaMK4, 1 μM compound) [%]	%-inhibition, CDK6/CycD3 ([2]; 1 µM) [%]	%-inhibition of PAK1 ([6]; 1 µM) [%]	%-inhibition of MAP2K5 ([3]; 1 µM) [%]	%-inhibition, CaMK4 ([7]; 1 µM) [%]	%-inhibition of QIK ([4]; 1 µM) [%]	%-inhibition of SPHK2 ([1]; 1 µM) [%]	%-inhibition, ALK(F1174L) ([5]; 1 µM) [%]
CN(C)C/C=C/C(=O)Nc1cc2c(Nc3ccc(F)c(Cl)c3)ncnc2cc1O[C@H]1CCOC1 [afatinib]	-10	–	–	–	–	–	–	–	–	–	–	–	–	–
COc1cc(Nc2c(C#N)cnc3cc(OCCCN4CCN(C)CC4)c(OC)cc23)c(Cl)cc1Cl [bosutinib]	4.4	0.0624	63	100	71	–	–	–	–	–	–	–	–	–
COc1cc2nccc(Oc3ccc(NC(=O)C4(C(=O)Nc5ccc(F)cc5)CC4)cc3)c2cc1OC [cabozantinib]	2	0.312	17	0.408	6.54	-2.55	-10	–	–	–	–	–	–	–
C[C@@H](Oc1cc(-c2cnn(C3CCNCC3)c2)cnc1N)c1c(Cl)ccc(F)c1Cl [crizotinib]	8	0.0624	24	38	–	-4	–	–	–	–	–	–	–	–
CC(C)(C)c1nc(-c2cccc(NS(=O)(=O)c3c(F)cccc3F)c2F)c(-c2ccnc(N)n2)s1 [dabrafenib]	-14	–	70	80	–	–	78	–	–	–	–	–	–	–
Cc1nc(Nc2ncc(C(=O)Nc3c(C)cccc3Cl)s2)cc(N2CCN(CCO)CC2)n1 [dasatinib]	–	9	–	–	–	–	–	–	–	–	–	–	–	–
C#Cc1cccc(Nc2ncnc3cc(OCCOC)c(OCCOC)cc23)c1 [erlotinib]	–	–	–	–	–	–	–	9	6.37	92	2	18	-2.22	41
CO[C@H]1C[C@@H]2CC[C@@H](C)[C@@](O)(O2)C(=O)C(=O)N2CCCC[C@H]2C(=O)O[C@H]([C@H](C)C[C@@H]2CC[C@@H](OCCO)[C@H](OC)C2)CC(=O)[C@H](C)/C=C(\C)[C@@H](O)[C@@H](OC)C(=O)[C@H](C)C[C@H](C)/C=C/C=C/C=C/1C [everolimus]	1.25	-3	1.34	-3	-3.68	-5.39	-11	–	–	–	–	–	–	–
O=S(=O)(c1cccc2cnccc12)N1CCCNCC1 [fasudil]	-21	-5.68	13	3.26	-4	–	-5.66	–	–	–	–	–	–	–
CS(=O)(=O)CCNCc1ccc(-c2ccc3ncnc(Nc4ccc(OCc5cccc(F)c5)c(Cl)c4)c3c2)o1 [lapatinib]	-4	5	1.63	-4.72	1.61	–	–	–	–	–	-4.44	–	–	–
Cc1cn(-c2cc(NC(=O)c3ccc(C)c(Nc4nccc(-c5cccnc5)n4)c3)cc(C(F)(F)F)c2)cn1 [nilotinib]	6	-23	-7.56	-36	-45	-159	3.54	–	–	–	–	–	–	–
Cc1ccc(Nc2nccc(N(C)c3ccc4c(C)n(C)nc4c3)n2)cc1S(N)(=O)=O [pazopanib]	4	9	13	17	26	-0.494	-1.08	–	–	–	–	–	–	–
Cc1ccc(C(=O)Nc2ccc(CN3CCN(C)CC3)c(C(F)(F)F)c2)cc1C#Cc1cnc2cccnn12 [ponatinib]	11	25	61	51	5	–	-1.51	–	–	–	–	–	–	–
CNC(=O)c1cc(Oc2ccc(NC(=O)Nc3ccc(Cl)c(C(F)(F)F)c3)c(F)c2)ccn1 [regorafenib]	-3.2	-1.31	17	-5.63	-7.49	-8	-0.0486	–	–	–	–	–	–	–
N#CC[C@H](C1CCCC1)n1cc(-c2ncnc3[nH]ccc23)cn1 [ruxolitinib]	6	-6	7	35	–	-5.62	-2.58	–	–	–	–	–	–	–
CCN(CC)CCNC(=O)c1c(C)[nH]c(/C=C2\C(=O)Nc3ccc(F)cc32)c1C [sunitinib]	–	–	–	–	–	–	26	–	–	–	–	–	–	–
CO[C@H]1C[C@@H]2CC[C@@H](C)[C@@](O)(O2)C(=O)C(=O)N2CCCC[C@H]2C(=O)O[C@H]([C@H](C)C[C@@H]2CC[C@@H](OC(=O)C(C)(CO)CO)[C@H](OC)C2)CC(=O)[C@H](C)/C=C(\C)[C@@H](O)[C@@H](OC)C(=O)[C@H](C)C[C@H](C)/C=C/C=C/C=C/1C [temsirolimus]	2.77	-3.18	-1.51	-3	-6	-3.8	-9	–	–	–	–	–	–	–
CC(=O)Nc1cccc(-n2c(=O)n(C3CC3)c(=O)c3c(Nc4ccc(I)cc4F)n(C)c(=O)c(C)c32)c1 [trametinib]	-14	-4.23	13	-4.66	-7	–	-5.45	–	-1.35	–	–	–	–	–
COc1cc2c(Nc3ccc(Br)cc3F)ncnc2cc1OCC1CCN(C)CC1 [vandetanib]	5.7	-1.19	43	95	–	-5.28	-3	–	–	–	–	–	–	–
CCCS(=O)(=O)Nc1ccc(F)c(C(=O)c2c[nH]c3ncc(-c4ccc(Cl)cc4)cc23)c1F [vemurafenib]	8	2.43	32	6	-1.36	-5	-2.38	–	–	–	–	–	–	–
